What was measured:
[1] = Formation of small spherical particles from first/second solvent mixtures on glass slide under nitrogen flow, graded by polarized light microscope; type: physicochemical; parameters: key: (+) = predominantly small spherical particles; (+/−) = a mixture of small spherical particles and non-spherical particles; (−) = predominantly non-spherical particles; ppt = the steroid precipitated out during addition of the second solvent
From the text: The ability to form small spherical particles of two steroids, beclomethasone dipropionate (BDP) and fluticasone propionate (FP) was examined in matrix experiments using acetone, ethanol, methanol, and methyl ethyl ketone (MEK) individually as the first solvents and water and heptane individually as the second solvents. The amount of second solvent added to the first solvent/steroid solution was varied as 0%, 10%, 20%, 30%, and 40% (v/v). MEK is not miscible with water and methanol is not miscible with heptane, so those combinations were not included in the experiment.
Either BDP or FP was weighed into a large screw cap glass tube and the solvent of choice was added (w/v) to yield a final concentration of 2 mg/mL. The tubes were vortexed and sonicated to completely dissolve the steroid. The sealed tubes containing these solutions were used as stock solutions for subsequent mixture with the appropriate second solvent. Immediately prior to use, an appropriate amount of the second solvent was slowly added to the first solvent/steroid solution while mixing to avoid premature precipitation. After adding the second solvent, the solutions were visually examined to ensure that premature precipitation had not occurred.
A fixture was constructed such that a 0.125-inch diameter orifice nozzle was positioned 1.75 inches above a standard glass microscope slide. Nitrogen gas was allowed to flow at 5 liters per minute through the nozzle and over the slide such that the flow direction of the gas was perpendicular to the surface of the slide. One or two drops of the test solution were placed on the slide directly under the orifice, and the nitrogen flow continued until the slide was dry (one to three minutes depending on the solution composition). Each slide was then examined under a polarized light microscope (Leica EPISTAR, Buffalo, N.Y.) using incident lighting. Each slide was graded for the presence of predominantly small spherical particles (+), a mixture of small spherical particles and non-spherical particles (+/−), and predominantly non-spherical particles (−). Variations in size and size distribution were observed between different test solutions.

[2] = Particle morphology and size by scanning electron microscopy (SEM); type: physicochemical; details: broad distribution, some particles larger than upper value
Method: Particle morphology for the following examples was obtained using Scanning Electron Microscopy (SEM, FEI Quanta 200, Hilsboro, Oreg.). The sample was prepared for analysis by placing a small amount on carbon double-stick tape fixed to an aluminum sample mount. The sample was then sputter-coated using a Cressington sputter coater 108 Auto for 90 seconds and 20 mA. A second SEM instrument (Amray 1000, Bedford, Mass.) was used to obtain additional images of the small spherical particles, due to its higher resolution capabilities. Particle morphology for the following examples was obtained using Scanning Electron Microscopy (FEI Quanta 200, Hilsboro, Oreg.). FIG. 4 presents SEM of micronized budesonide starting material and FIG. 5 presents SEM of the resulting budesonide small spherical particles.

[3] = first solvent MEK, 0% second solvent (2 mg/mL stock solution)
[4] = first solvent acetone, 0% second solvent (2 mg/mL stock solution)
[5] = first solvent acetone, 10% heptane
[6] = first solvent acetone, 10% water
[7] = first solvent acetone, 20% heptane
[8] = first solvent acetone, 20% water
[9] = first solvent acetone, 30% heptane
[10] = first solvent acetone, 30% water
[11] = first solvent acetone, 40% heptane
[12] = first solvent acetone, 40% water
[13] = first solvent ethanol, 0% second solvent (2 mg/mL stock solution)
[14] = first solvent ethanol, 10% heptane
[15] = first solvent ethanol, 10% water
[16] = first solvent ethanol, 20% heptane
[17] = first solvent ethanol, 20% water
[18] = first solvent ethanol, 30% heptane
[19] = first solvent ethanol, 30% water
[20] = first solvent ethanol, 40% heptane
[21] = first solvent ethanol, 40% water
[22] = first solvent methanol, 0% second solvent (2 mg/mL stock solution)
[23] = first solvent methanol, 10% water
[24] = first solvent methanol, 20% water
[25] = first solvent methanol, 30% water
[26] = first solvent methanol, 40% water

| Formation of small spherical particles [1, 3] | Formation of small spherical particles ([1]; first solvent MEK, 10% heptane) | Formation of small spherical particles ([1]; first solvent MEK, 20% heptane) | Formation of small spherical particles ([1]; first solvent MEK, 30% heptane) | Formation of small spherical particles ([1]; first solvent MEK, 40% heptane) | Formation of small spherical particles [1, 4] | Formation of small spherical particles [1, 5] | Formation of small spherical particles [1, 6] | Formation of small spherical particles [1, 7] | Formation of small spherical particles [1, 8] | Formation of small spherical particles [1, 9] | Formation of small spherical particles [1, 10] | Formation of small spherical particles [1, 11] | Formation of small spherical particles [1, 12] | Formation of small spherical particles [1, 13] | Formation of small spherical particles [1, 14] | Formation of small spherical particles [1, 15] | Formation of small spherical particles [1, 16] | Formation of small spherical particles [1, 17] | Formation of small spherical particles [1, 18] | SMILES | further results |
| --- | --- | --- | --- | --- | --- | --- | --- | --- | --- | --- | --- | --- | --- | --- | --- | --- | --- | --- | --- | --- | --- |
| +/− | + | + | + | + | + | + | + | + | + | +/− | + | +/− | + | + | + | + | +/− | + | +/− | CCC(=O)OCC(=O)[C@@]1(OC(=O)CC)[C@@H](C)C[C@H]2[C@@H]3CCC4=CC(=O)C=C[C@]4(C)[C@@]3(Cl)[C@@H](O)C[C@@]21C [Beclomethasone dipropionate] | Formation of small spherical particles [1, 19]: +; Formation of small spherical particles [1, 20]: +/−; Formation of small spherical particles [1, 21]: +; Formation of small spherical particles [1, 22]: +; Formation of small spherical particles [1, 23]: +; Formation of small spherical particles [1, 24]: +; Formation of small spherical particles [1, 25]: +; Formation of small spherical particles [1, 26]: + |
| +/− | − | − | − | − | + | + | + | + | +/− | +/− | − | +/− | − | +/− | − | +/− | − | +/− | − | CCC(=O)O[C@]1(C(=O)SCF)[C@H](C)C[C@H]2[C@@H]3C[C@H](F)C4=CC(=O)C=C[C@]4(C)[C@@]3(F)[C@@H](O)C[C@@]21C [Fluticasone propionate] | Formation of small spherical particles [1, 19]: −; Formation of small spherical particles [1, 20]: −; Formation of small spherical particles [1, 21]: −; Formation of small spherical particles [1, 22]: −; Formation of small spherical particles [1, 23]: −; Formation of small spherical particles [1, 24]: ppt; Formation of small spherical particles [1, 25]: ppt; Formation of small spherical particles [1, 26]: ppt |
|  |  |  |  |  |  |  |  |  |  |  |  |  |  |  |  |  |  |  |  | CCC(=O)OCC(=O)[C@@]1(OC(=O)CC)[C@@H](C)C[C@H]2[C@@H]3CCC4=CC(=O)C=C[C@]4(C)[C@@]3(Cl)[C@@H](O)C[C@@]21C [micronized BDP starting material, beclomethasone dipropionate] | particle size distribution [2]: 5-50 microns |

Reference: patent publication US20050048127A1, “Small spherical particles of low molecular weight organic molecules and methods of preparation and use thereof” (priority 2003, published 2005)
